Laboratory results from US8163718B2, “Nucleoside analogues containing phosphonate or phosphonamide groups” (Gilead Sciences, Inc., priority 2008, dated 2012).

Test system: HCT-15
Experiment: Cytostatic cell culture assay (GI50), SRB
Type: cell-based
Settings: Homo sapiens, HCT-15, 120 h; 5 days incubation
Text: (§1) The assay is based on quantification of cell counts by a colorimetric detection of the cell associated proteins. The assay relies on the ability of sulforhodamine B (SRB) to bind to protein components of cells that have been fixed to tissue-culture plates by trichloroacetic acid (TCA). SRB is a bright-pink aminoxanthene dye with two sulfonic groups that bind to basic amino-acid residues under mild acidic conditions, and dissociate under basic conditions. As the binding of SRB is stoichiometric, the amount of dye extracted from stained cells is directly proportional to the cell mass.
(§2) Cell lines: All cell lines were obtained from ATCC (Manassas, Va.). Cultivation media containing Glutamax, and trypsin were purchased from Invitrogen (Carlsbad, Calif.). Doxorubicin, Clofarabine, TCA and SRB were from Sigma-Aldrich (St. Louis, Mo.). Gemcitabine was obtained from Moravek Biochemicals (Brea, Calif.)
(§3) • 1. Trypsinize the sub-confluent cells, count them, and adjust the cell concentrations according to the cell counts listed in Table 1. • 2. Distribute the cells into the 96-well plates in 150 μL of media. Incubate the plates overnight in humidified CO2 incubator at 37° C. • 3. Fix one plate of each cell line with TCA. Discard the cultivation media from the plates by flicking them gently and add 100 ul cold 10% (vol/vol) TCA to each well. Incubate the plates at 4 degree refrigerator for 1 hour. Discard TCA from the plates by flicking them gently. Rinse plates four times in a washing basin containing tap water. Store the plates at room temperature. These plates represent cell counts on day zero. • 4. Prepare a set of medium solutions containing various concentrations of tested compounds by making 5-fold serial dilutions in 96-well plate. Add 50 μL of the diluted compounds per well. Include controls with untreated cells and cells treated with doxorubicin, clofarabine and gemcitabine. • 5. Incubate the plates for 5 days at 37° C. • 6. Fix the plates with TCA. Discard the cultivation media from the plates by flicking them gently and add 100 ul cold 10% (vol/vol) TCA to each well. Incubate the plates at 4 degree refrigerator for 1 hour. Discard TCA from the plates by flicking them gently. Rinse plates four times in a washing basin containing tap water. • 7. Remove excess water by tapping the plates face down, gently on a paper towel. Allow the plates to air-dry at room temperature. • 8. Add 100 ul of 0.057% SRB solution in 1% (vol/vol) acetic acid to each well of the plates fixed with TCA on day zero and five. Leave at room temperature for 30 minutes. • 9. Flick the plates gently to discard SRB. Rinse the plates four times with 1% (vol/vol) Acetic Acid. • 10. Store the plates at 37 degree incubator to facilitate faster drying. • 11. Once the plates are completely dry, add 200 ul of 10 mM Tris base solution (pH 10.5) to each well. Leave at room temperature for 30 minutes for SRB to solubilize. • 12. Measure the OD at 500 nm in a microplate reader • 13. Calculate the percentage of cell-growth inhibition using the next formula: % of control cell growth=100×(ODsample−mean ODday0)/(ODneg control−mean ODday0)
(§4) For GI50 determination, plot a dose-response curve between the compound concentration and percent of growth inhibition. GI50 values can be derived by fitting dose-response curves using sigmoidal dose response equation.

GI50 [µM]	Compound
8.9	CCCCOc1nc(N)nc2c1ncn2CCOCP(=O)(N[C@@H](C)C(=O)OCC)N[C@@H](C)C(=O)OCC [Example 35]
0.766	COc1nc(N)nc2c1ncn2CCOCP(=O)(OCOC(=O)OC(C)C)OCOC(=O)OC(C)C [Example 60]
5.1	CCCCOC(=O)[C@H](C)NP(=O)(COCCn1cnc2c(OCCOC)nc(N)nc21)N[C@@H](C)C(=O)OCCCC [Example 49]

The remaining lines, values behind:

Compound	GI50 [µM]
CCCCCOc1nc(N)nc2c1ncn2CCOCP(=O)(N[C@@H](C)C(=O)OCC)N[C@@H](C)C(=O)OCC [Example 41]	6.4
CCOC(=O)[C@@H]1CCCN1P(=O)(COCCn1cnc2c(OC3CCCCC3)nc(N)nc21)N1CCC[C@H]1C(=O)OCC [Example 40]	> 10

Test system: PC3
Experiment: Cytostatic cell culture assay (GI50), SRB
Type: cell-based
Settings: Homo sapiens, PC-3, 120 h; 5 days incubation
Text: as §1, §2, §3, §4

GI50 [nM]	Compound
28	CCCCOc1nc(N)nc2c1ncn2CCOCP(=O)(N[C@@H](C)C(=O)OCC)N[C@@H](C)C(=O)OCC [Example 35]
52	COc1nc(N)nc2c1ncn2CCOCP(=O)(OCOC(=O)OC(C)C)OCOC(=O)OC(C)C [Example 60]
3	CCCCOC(=O)[C@H](C)NP(=O)(COCCn1cnc2c(OCCOC)nc(N)nc21)N[C@@H](C)C(=O)OCCCC [Example 49]

Further lines, the compound ahead of its results:

Compound	GI50 [nM]
CCCCCOc1nc(N)nc2c1ncn2CCOCP(=O)(N[C@@H](C)C(=O)OCC)N[C@@H](C)C(=O)OCC [Example 41]	10
CCOC(=O)[C@@H]1CCCN1P(=O)(COCCn1cnc2c(OC3CCCCC3)nc(N)nc21)N1CCC[C@H]1C(=O)OCC [Example 40]	109

Test system: BT-549
Experiment: Cytostatic cell culture assay (GI50), SRB
Type: cell-based
Settings: Homo sapiens, BT-549, 120 h; 5 days incubation
Text: as §1, §2, §3, §4

GI50 [nM]	Compound
145	CCCCOc1nc(N)nc2c1ncn2CCOCP(=O)(N[C@@H](C)C(=O)OCC)N[C@@H](C)C(=O)OCC [Example 35]
42	COc1nc(N)nc2c1ncn2CCOCP(=O)(OCOC(=O)OC(C)C)OCOC(=O)OC(C)C [Example 60]
50	CCCCOC(=O)[C@H](C)NP(=O)(COCCn1cnc2c(OCCOC)nc(N)nc21)N[C@@H](C)C(=O)OCCCC [Example 49]

Continued, compound first:

Compound	GI50 [nM]
CCCCCOc1nc(N)nc2c1ncn2CCOCP(=O)(N[C@@H](C)C(=O)OCC)N[C@@H](C)C(=O)OCC [Example 41]	301
CCOC(=O)[C@@H]1CCCN1P(=O)(COCCn1cnc2c(OC3CCCCC3)nc(N)nc21)N1CCC[C@H]1C(=O)OCC [Example 40]	1780

Test system: NCI-H23
Experiment: Cytostatic cell culture assay (GI50), SRB
Type: cell-based
Settings: Homo sapiens, NCI-H23, 120 h; 5 days incubation
Text: as §1, §2, §3, §4

GI50 [nM]	Compound
14	CCCCOc1nc(N)nc2c1ncn2CCOCP(=O)(N[C@@H](C)C(=O)OCC)N[C@@H](C)C(=O)OCC [Example 35]
5	COc1nc(N)nc2c1ncn2CCOCP(=O)(OCOC(=O)OC(C)C)OCOC(=O)OC(C)C [Example 60]
2	CCCCOC(=O)[C@H](C)NP(=O)(COCCn1cnc2c(OCCOC)nc(N)nc21)N[C@@H](C)C(=O)OCCCC [Example 49]

Continued, compound first:

Compound	GI50 [nM]
CCCCCOc1nc(N)nc2c1ncn2CCOCP(=O)(N[C@@H](C)C(=O)OCC)N[C@@H](C)C(=O)OCC [Example 41]	11
CCOC(=O)[C@@H]1CCCN1P(=O)(COCCn1cnc2c(OC3CCCCC3)nc(N)nc21)N1CCC[C@H]1C(=O)OCC [Example 40]	252

Test system: HCT-116
Experiment: Cytostatic cell culture assay (GI50), SRB
Type: cell-based
Settings: Homo sapiens, HCT-116, 120 h; 5 days incubation
Text: as §1, §2, §3, §4

GI50 [nM]	Compound
140	CCCCOc1nc(N)nc2c1ncn2CCOCP(=O)(N[C@@H](C)C(=O)OCC)N[C@@H](C)C(=O)OCC [Example 35]
79	COc1nc(N)nc2c1ncn2CCOCP(=O)(OCOC(=O)OC(C)C)OCOC(=O)OC(C)C [Example 60]
109	CCCCOC(=O)[C@H](C)NP(=O)(COCCn1cnc2c(OCCOC)nc(N)nc21)N[C@@H](C)C(=O)OCCCC [Example 49]

Second part, the compound before the results:

Compound	GI50 [nM]
CCCCCOc1nc(N)nc2c1ncn2CCOCP(=O)(N[C@@H](C)C(=O)OCC)N[C@@H](C)C(=O)OCC [Example 41]	133
CCOC(=O)[C@@H]1CCCN1P(=O)(COCCn1cnc2c(OC3CCCCC3)nc(N)nc21)N1CCC[C@H]1C(=O)OCC [Example 40]	2440

Test system: A549
Experiment: Cytostatic cell culture assay (GI50), SRB
Type: cell-based
Settings: Homo sapiens, A549, 120 h; 5 days incubation
Text: as §1, §2, §3, §4

GI50 [nM]	Compound
187	CCCCOc1nc(N)nc2c1ncn2CCOCP(=O)(N[C@@H](C)C(=O)OCC)N[C@@H](C)C(=O)OCC [Example 35]
91	COc1nc(N)nc2c1ncn2CCOCP(=O)(OCOC(=O)OC(C)C)OCOC(=O)OC(C)C [Example 60]
368	CCCCOC(=O)[C@H](C)NP(=O)(COCCn1cnc2c(OCCOC)nc(N)nc21)N[C@@H](C)C(=O)OCCCC [Example 49]

The next lines start with the compound.

Compound	GI50 [nM]
CCCCCOc1nc(N)nc2c1ncn2CCOCP(=O)(N[C@@H](C)C(=O)OCC)N[C@@H](C)C(=O)OCC [Example 41]	195
CCOC(=O)[C@@H]1CCCN1P(=O)(COCCn1cnc2c(OC3CCCCC3)nc(N)nc21)N1CCC[C@H]1C(=O)OCC [Example 40]	8800

Test system: Hs-578
Experiment: Cytostatic cell culture assay (GI50), SRB
Type: cell-based
Settings: Hs578, 120 h; 5 days incubation
Text: as §1, §2, §3, §4

Compound	GI50 [nM]
CCCCOc1nc(N)nc2c1ncn2CCOCP(=O)(N[C@@H](C)C(=O)OCC)N[C@@H](C)C(=O)OCC [Example 35]	46
CCCCCOc1nc(N)nc2c1ncn2CCOCP(=O)(N[C@@H](C)C(=O)OCC)N[C@@H](C)C(=O)OCC [Example 41]	62
COc1nc(N)nc2c1ncn2CCOCP(=O)(OCOC(=O)OC(C)C)OCOC(=O)OC(C)C [Example 60]	22
CCOC(=O)[C@@H]1CCCN1P(=O)(COCCn1cnc2c(OC3CCCCC3)nc(N)nc21)N1CCC[C@H]1C(=O)OCC [Example 40]	276
CCCCOC(=O)[C@H](C)NP(=O)(COCCn1cnc2c(OCCOC)nc(N)nc21)N[C@@H](C)C(=O)OCCCC [Example 49]	25

Test system: Du-145
Experiment: Cytostatic cell culture assay (GI50), SRB
Type: cell-based
Settings: Homo sapiens, DU-145, 120 h; 5 days incubation
Text: as §1, §2, §3, §4

GI50 [nM]	Compound
5	CCCCOc1nc(N)nc2c1ncn2CCOCP(=O)(N[C@@H](C)C(=O)OCC)N[C@@H](C)C(=O)OCC [Example 35]
2	COc1nc(N)nc2c1ncn2CCOCP(=O)(OCOC(=O)OC(C)C)OCOC(=O)OC(C)C [Example 60]
1	CCCCOC(=O)[C@H](C)NP(=O)(COCCn1cnc2c(OCCOC)nc(N)nc21)N[C@@H](C)C(=O)OCCCC [Example 49]

More lines, now with the values behind:

Compound	GI50 [nM]
CCCCCOc1nc(N)nc2c1ncn2CCOCP(=O)(N[C@@H](C)C(=O)OCC)N[C@@H](C)C(=O)OCC [Example 41]	1
CCOC(=O)[C@@H]1CCCN1P(=O)(COCCn1cnc2c(OC3CCCCC3)nc(N)nc21)N1CCC[C@H]1C(=O)OCC [Example 40]	74
